The values that follow come from PubChem BioAssay AID2060890 (Molecular Pharmacology Branch, DTP, NCI, 2025).

Where “and” joins values, the source holds several entries; their conditions need not be identical. Equal entries are not always repeated.

The test system of the experiment is LG0703-F948-PDC complex spheroid viability. Nature of the experiment: Anticancer human tumor LG0703-F948-PDC patient-derived lung adenocarcinoma cell line growth inhibition [RAS]. The settings on record: for viability, T/C: stronger effect = lower value. The essentials:
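Agents were tested in combination matrices in half-log decrements from a top concentration at or near clinical Cmax (10 microM if undetermined). Targets were multi-cell spheroids of tumour lines plus HUVEC and MSC stromal cells.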
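Further: spheroids exposed to agents for 7 days.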
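Wherever viability, T/C is given: 100% = DMSO vehicle wells.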

Regarding `O=C(c1ccc(F)c(F)c1Nc1ccc(I)cc1F)N1CC(O)([C@@H]2CCCCN2)C1` + CCn1c(-c2cccnc2C(C)OC)c2c3cc(ccc31)N1CCOC(CC(NC(=O)C(C(C)C)N(C)C(=O)C3(F)CCN(C(=O)C#CC(C)(C)N(C)C)CC3)C(=O)N3CCCC(N3)C(=O)OCC(C)(C)C2)C1, the IC50 by setting is: (curve of first compound, second compound 0.000949 µM) 79.9 nM; (curve of first compound, second compound 0.003 µM) 63.9 nM; (curve of first compound, second compound 0.00949 µM) 87.3 nM; (curve of first compound, second compound 0.03 µM) 65.1 nM; (curve of first compound, second compound 0.0949 µM) 22.7 nM; (curve of first compound, second compound 0.3 µM) less than 3.16 nM. Also, the viability, T/C is 93.7% (second compound 0.000949 µM, first compound 0.00316 µM); 93.3% (second compound 0.000949 µM, first compound 0.01 µM); 64.2% (second compound 0.000949 µM, first compound 0.0316 µM); 48.2% (second compound 0.000949 µM, first compound 0.1 µM); 33.4% (second compound 0.000949 µM, first compound 0.316 µM); 28.2% (second compound 0.000949 µM, first compound 1 µM). Besides, the viability, T/C is, setting by setting: (second compound 0.003 µM, first compound 0.00316 µM) 97.1%; (second compound 0.003 µM, first compound 0.01 µM) 79.8%; (second compound 0.003 µM, first compound 0.0316 µM) 60.5%; (second compound 0.003 µM, first compound 0.1 µM) 40.7%; (second compound 0.003 µM, first compound 0.316 µM) 38.4%; (second compound 0.003 µM, first compound 1 µM) 27.2%. Also, the viability, T/C by setting is: (second compound 0.00949 µM, first compound 0.00316 µM) 87.3%; (second compound 0.00949 µM, first compound 0.01 µM) 88.3%; (second compound 0.00949 µM, first compound 0.0316 µM) 70%; (second compound 0.00949 µM, first compound 0.1 µM) 46.9%; (second compound 0.00949 µM, first compound 0.316 µM) 30.6%; (second compound 0.00949 µM, first compound 1 µM) 21.6%. The viability, T/C is 96.2% (second compound 0.03 µM, first compound 0.00316 µM); 76.1% (second compound 0.03 µM, first compound 0.01 µM); 60.9% (second compound 0.03 µM, first compound 0.0316 µM); 42.7% (second compound 0.03 µM, first compound 0.1 µM); 33.1% (second compound 0.03 µM, first compound 0.316 µM); 21.9% (second compound 0.03 µM, first compound 1 µM). In addition, the viability, T/C runs as follows: (second compound 0.0949 µM, first compound 0.00316 µM) 69.4%; (second compound 0.0949 µM, first compound 0.01 µM) 61%; (second compound 0.0949 µM, first compound 0.0316 µM) 44.2%; (second compound 0.0949 µM, first compound 0.1 µM) 33.5%; (second compound 0.0949 µM, first compound 0.316 µM) 20.9%; (second compound 0.0949 µM, first compound 1 µM) 12.4%. Also, the viability, T/C is 41.6% (second compound 0.3 µM, first compound 0.00316 µM); 35.4% (second compound 0.3 µM, first compound 0.01 µM); 24% (second compound 0.3 µM, first compound 0.0316 µM); 13.1% (second compound 0.3 µM, first compound 0.1 µM); 13.1% (second compound 0.3 µM, first compound 0.316 µM); 5.27% (second compound 0.3 µM, first compound 1 µM).

For the compound `NC1c2ccccc2OC12CCN(c1cnc3c(N4CCCc5ncccc54)n[nH]c3n1)CC2` (centres undefined), the viability, T/C (compound 0.0316 µM) is 50.5% [middle of 4 runs]; the viability, T/C (compound 0.1 µM) is 31.6% [middle of 4 runs]; the viability, T/C (compound 0.316 µM) is 20.4% [middle of 4 runs]; the viability, T/C (compound 1 µM) was 13.1% [middle of 4 runs]; the viability, T/C (compound 3.16 µM) is 5.94% [middle of 4 runs]; the viability, T/C (compound 10 µM) is 2.92% [middle of 4 runs]. Further, the IC50 (curve of compound) was < 31.6 nM and 59 nM.

On to `CCC(CC)c1cc(NC2CCC(N)C2)n2nccc2n1` (centres undefined), for which the viability, T/C was 85.9% and 96.8% and 101% (compound 0.0316 µM); 94.6% and 93.7% and 90% (compound 0.1 µM); 75.7% and 85.7% and 97% (compound 0.316 µM); 76.4% and 54.7% and 68.8% (compound 1 µM); 4.37% and 1.19% and 2.28% (compound 3.16 µM); 0.41% and 0.27% and 0.38% (compound 10 µM). For the same compound, under “curve of compound”, the IC50 was 1520 nM and 1080 nM and 1380 nM.

Consider `C#Cc1c(F)ccc2cc(O)cc(-c3ncc4c(N5CC6CCC(C5)N6)nc(OCC56CCCN5CC(F)C6)nc4c3F)c12` (centres undefined), for which the viability, T/C is, setting by setting: (compound 0.1 µM) 98.8% [middle of 8 runs]; (compound 0.316 µM) 85.7% [middle of 8 runs]; (compound 3.16 µM) 61% [middle of 8 runs]; (compound 10 µM) 56.6% [middle of 8 runs]. Moreover, the IC50 (compound alone, run of 09/09/2024) is > 10000 nM and 9290 nM.

`CCc1c2c(nc3ccc(O)cc13)-c1cc3c(c(=O)n1C2)COC(=O)[C@]3(O)CC`: the viability, T/C is 98.3% [middle of 4 runs] (compound 0.003 µM), 65.8% [middle of 4 runs] (compound 0.03 µM) and 31.6% [middle of 4 runs] (compound 0.3 µM).

In general, IC50 refers to the concentration needed to halve the response being measured. The viability, T/C is the result in the treated group divided by that in the control group, in per cent.
